Test results from ChEMBL document CHEMBL1201861, “Genomics of Drug Sensitity in Cancer screening data, Wellcome Trust Sanger Institute”.

Legend:
Experiment in all cases: cells
Conditions in all cases: Homo sapiens
[1] = test system: CTB-1; assay type: functional, cell-based
Description: SANGER: Inhibition of human CTB-1 cell growth in a cell viability assay.

[2] = test system: CTV-1; assay type: functional, cell-based;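 note: growth inhibition of the cell line, read out with a cell viability assay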
Description: SANGER: Inhibition of human CTV-1 cell growth in a cell viability assay.

[3] = test system: Calu-6; assay type: functional, cell-based;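 note: growth of human Calu-6 cells, read out by a cell viability assay, IC50 marking inhibition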
Description: SANGER: Inhibition of human Calu-6 cell growth in a cell viability assay.

[4] = test system: D283 Med; assay type: functional, cell-based
Description: SANGER: Inhibition of human D-283MED cell growth in a cell viability assay.

[5] = test system: D-502MG; assay type: functional, cell-based
Description: SANGER: Inhibition of human D-502MG cell growth in a cell viability assay.

[6] = test system: DMS-114; assay type: functional, cell-based
[7] = test system: DMS-79; assay type: functional, cell-based;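 note: growth inhibition measured with a cell viability assay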
Description: SANGER: Inhibition of human DMS-79 cell growth in a cell viability assay.

[8] = test system: DU-4475; assay type: functional, cell-based
Description: SANGER: Inhibition of human DU-4475 cell growth in a cell viability assay.

[9] = test system: EC-GI-10; assay type: functional, cell-based
Description: SANGER: Inhibition of human EC-GI-10 cell growth in a cell viability assay.

[10] = test system: ES3; assay type: functional, cell-based;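 note: growth inhibition of ES3 cells, read out with a cell viability assay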
Description: SANGER: Inhibition of human ES3 cell growth in a cell viability assay.

[11] = test system: ES5; assay type: functional, cell-based;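 note: growth inhibition of human ES5 cells, read out by a cell viability assay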
Description: SANGER: Inhibition of human ES5 cell growth in a cell viability assay.

[12] = test system: EW-24; assay type: functional, cell-based;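 note: human EW-24 cancer cell line, growth inhibition read out via a cell viability assay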
Description: SANGER: Inhibition of human EW-24 cell growth in a cell viability assay.

[13] = test system: EOL1; assay type: functional, cell-based;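 note: growth inhibition of EoL-1 cells, read out by a cell viability assay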
Description: SANGER: Inhibition of human EoL-1-cell cell growth in a cell viability assay.

[14] = test system: GCIY; assay type: functional, cell-based;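 note: growth inhibition of the human GCIY cell line, read out by a cell viability assay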
Description: SANGER: Inhibition of human GCIY cell growth in a cell viability assay.

[15] = test system: GOTO; assay type: functional, cell-based;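 note: growth inhibition of GOTO cells, read out by a cell viability assay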
Description: SANGER: Inhibition of human GOTO cell growth in a cell viability assay.

[16] = test system: HCC1187; assay type: functional, cell-based;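 note: growth inhibition of HCC1187 cells, read out with a cell viability assay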
Description: SANGER: Inhibition of human HCC1187 cell growth in a cell viability assay.

[17] = test system: HCE-4; assay type: functional, cell-based;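 note: cell viability assay measuring inhibition of growth in the human HCE-4 cell line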
Description: SANGER: Inhibition of human HCE-4 cell growth in a cell viability assay.

[18] = test system: HCE-T; assay type: functional, cell-based;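 note: cell viability assay read-out, reporting inhibition of HCE-T cell growth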
Description: SANGER: Inhibition of human HCE-T cell growth in a cell viability assay.

[19] = test system: HOP-62; assay type: functional, cell-based;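 note: cell growth inhibition determined with a viability assay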
Description: SANGER: Inhibition of human HOP-62 cell growth in a cell viability assay.

[20] = test system: HuTu80; assay type: functional, cell-based, HUTU-80;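 note: growth inhibition of HuTu80 human cells, determined with a cell viability readout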
Description: SANGER: Inhibition of human HUTU-80 cell growth in a cell viability assay.

[21] = test system: JVM-2; assay type: functional, cell-based;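 note: growth inhibition of JVM-2 cells determined by a cell viability assay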
Description: SANGER: Inhibition of human JVM-2 cell growth in a cell viability assay.

[22] = test system: JVM-3; assay type: functional, cell-based;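 note: growth inhibition of human JVM-3 cells, read out with a cell viability assay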
Description: SANGER: Inhibition of human JVM-3 cell growth in a cell viability assay.

[23] = test system: KALS-1; assay type: functional, cell-based;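 note: growth inhibition of KALS-1 cells, determined with a cell viability assay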
Description: SANGER: Inhibition of human KALS-1 cell growth in a cell viability assay.

[24] = test system: KARPAS-45; assay type: functional, cell-based;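 note: inhibition of cell line growth, read out through a viability assay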
Description: SANGER: Inhibition of human KARPAS-45 cell growth in a cell viability assay.

[25] = test system: KG-1; assay type: functional, cell-based;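 note: growth inhibition of KG-1 cells, read out by a cell viability assay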
Description: SANGER: Inhibition of human KG-1 cell growth in a cell viability assay.

[26] = test system: KGN; assay type: functional, cell-based;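 note: growth inhibition of KGN cells, read out with a cell viability assay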
Description: SANGER: Inhibition of human KGN cell growth in a cell viability assay.

[27] = test system: KINGS-1; assay type: functional, cell-based;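 note: cell viability assay measuring suppression of KINGS-1 cell growth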
Description: SANGER: Inhibition of human KINGS-1 cell growth in a cell viability assay.

[28] = test system: KLE; assay type: functional, cell-based;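 note: growth inhibition of human KLE cells, read out with a cell viability assay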
Description: SANGER: Inhibition of human KLE cell growth in a cell viability assay.

[29] = test system: KNS-42; assay type: functional, cell-based;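 note: growth inhibition of KNS-42 cells, read out with a cell viability assay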
Description: SANGER: Inhibition of human KNS-42 cell growth in a cell viability assay.

[30] = test system: KP-N-YS; assay type: functional, cell-based;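 note: cell viability assay measuring inhibition of cell line growth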
Description: SANGER: Inhibition of human KP-N-YS cell growth in a cell viability assay.

[31] = test system: KS-1; assay type: functional, cell-based;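 note: growth inhibition of KS-1 cells, read out with a cell viability assay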
Description: SANGER: Inhibition of human KS-1 cell growth in a cell viability assay.

[32] = test system: KURAMOCHI; assay type: functional, cell-based;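 note: growth inhibition of KURAMOCHI cells, read out with a cell viability assay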
Description: SANGER: Inhibition of human KURAMOCHI cell growth in a cell viability assay.

[33] = test system: L-428; assay type: functional, cell-based
Description: SANGER: Inhibition of human L-428 cell growth in a cell viability assay.

[34] = test system: LB1047-RCC; assay type: functional, cell-based;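 note: inhibition of cell growth, determined with a cell viability assay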
Description: SANGER: Inhibition of human LB1047-RCC cell growth in a cell viability assay.

[35] = test system: LS-1034; assay type: functional, cell-based
Description: SANGER: Inhibition of human LS-1034 cell growth in a cell viability assay.

[36] = test system: MHH-PREB-1; assay type: functional, cell-based;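 note: cell viability assay measuring inhibition of proliferation of human MHH-PREB-1 cells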
Description: SANGER: Inhibition of human MHH-PREB-1 cell growth in a cell viability assay.

[37] = test system: ML-2; assay type: functional, cell-based;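 note: growth inhibition of ML-2 cells, measured with a cell viability readout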
Description: SANGER: Inhibition of human ML-2 cell growth in a cell viability assay.

[38] = test system: MN-60; assay type: functional, cell-based;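 note: growth inhibition of the MN-60 cell line, determined with a cell viability assay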
Description: SANGER: Inhibition of human MN-60 cell growth in a cell viability assay.

[39] = test system: MS-1; assay type: functional, cell-based;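 note: growth inhibition of MS-1 cells, read out by cell viability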
Description: SANGER: Inhibition of human MS-1 cell growth in a cell viability assay.

[40] = test system: MSTO-211H; assay type: functional, cell-based
Description: SANGER: Inhibition of human MSTO-211H cell growth in a cell viability assay.

[41] = test system: NCI-H1155; assay type: functional, cell-based;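 note: cell growth inhibition measured by a viability assay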
Description: SANGER: Inhibition of human NCI-H1155 cell growth in a cell viability assay.

[42] = test system: NCI-H1355; assay type: functional, cell-based;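 note: growth inhibition of human NCI-H1355 cells, read out by a cell viability assay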
Description: SANGER: Inhibition of human NCI-H1355 cell growth in a cell viability assay.

[43] = test system: NCI-H1648; assay type: functional, cell-based;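 note: cell viability assay measuring inhibition of NCI-H1648 cell growth, from the Sanger screening data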
Description: SANGER: Inhibition of human NCI-H1648 cell growth in a cell viability assay.

[44] = test system: NCI-H209; assay type: functional, cell-based;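 note: growth inhibition of human NCI-H209 cells, measured by a cell viability assay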
Description: SANGER: Inhibition of human NCI-H209 cell growth in a cell viability assay.

[45] = test system: NCI-H510A; assay type: functional, cell-based;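 note: growth inhibition of NCI-H510A cells, read out with a cell viability assay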
Description: SANGER: Inhibition of human NCI-H510A cell growth in a cell viability assay.

[46] = test system: NOMO-1; assay type: functional, cell-based;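 note: growth inhibition of human NOMO-1 cells measured by a cell viability assay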
Description: SANGER: Inhibition of human NOMO-1 cell growth in a cell viability assay.

[47] = test system: NTERA-2-cl-D1; assay type: functional, cell-based;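 note: inhibition of cell growth, measured with a cell viability assay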
Description: SANGER: Inhibition of human NTERA-S-cl-D1 cell growth in a cell viability assay.

[48] = test system: OMC-1; assay type: functional, cell-based;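 note: growth inhibition of the OMC-1 cell line, measured by a cell viability assay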
Description: SANGER: Inhibition of human OMC-1 cell growth in a cell viability assay.

[49] = test system: ONS-76; assay type: functional, cell-based;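 note: growth inhibition of human ONS-76 cells, read out with a cell viability assay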
Description: SANGER: Inhibition of human ONS-76 cell growth in a cell viability assay.

[50] = test system: OS-RC-2; assay type: functional, cell-based;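 note: growth inhibition of human OS-RC-2 cells, measured by a cell viability assay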
Description: SANGER: Inhibition of human OS-RC-2 cell growth in a cell viability assay.

[51] = test system: RPMI-8866; assay type: functional, cell-based
Description: SANGER: Inhibition of human RPMI-8866 cell growth in a cell viability assay.

[52] = test system: SCC-15; assay type: functional, cell-based;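 note: growth inhibition of SCC-15 cells, read out with a cell viability assay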
Description: SANGER: Inhibition of human SCC-15 cell growth in a cell viability assay.

[53] = test system: SF-539; assay type: functional, cell-based;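 note: Read-out is a cell viability assay, with IC50 reflecting inhibition of cell growth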
Description: SANGER: Inhibition of human SF539 cell growth in a cell viability assay.

[54] = test system: SJSA-1; assay type: functional, cell-based;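 note: growth inhibition of human SJSA-1 cells, read out through a cell viability measurement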
Description: SANGER: Inhibition of human SJSA-1 cell growth in a cell viability assay.

[55] = test system: SK-MEL-1; assay type: functional, cell-based;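 note: growth inhibition of human SK-MEL-1 cells, read out by a cell viability assay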
Description: SANGER: Inhibition of human SK-MEL-1 cell growth in a cell viability assay.

[56] = test system: SK-N-DZ; assay type: functional, cell-based;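 note: growth inhibition of the cancer cell line, read out through a viability assay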
Description: SANGER: Inhibition of human SK-N-DZ cell growth in a cell viability assay.

[57] = test system: SK-N-FI; assay type: functional, cell-based;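 note: cell viability assay measuring growth inhibition of human SK-N-FI cells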
Description: SANGER: Inhibition of human SK-N-FI cell growth in a cell viability assay.

[58] = test system: SK-NEP-1; assay type: functional, cell-based;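 note: growth inhibition of human SK-NEP-1 cells, read out by a cell viability assay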
Description: SANGER: Inhibition of human SK-NEP-1 cell growth in a cell viability assay.

[59] = test system: SNB-75; assay type: functional, cell-based;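 note: cell viability assay measuring growth inhibition of human SNB-75 cells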
Description: SANGER: Inhibition of human SNB75 cell growth in a cell viability assay.

[60] = test system: SW 962; assay type: functional, cell-based;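 note: growth inhibition of human SW962 cells, read out by a cell viability assay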
Description: SANGER: Inhibition of human SW962 cell growth in a cell viability assay.

[61] = test system: A3-KAW; assay type: functional, cell-based
Description: SANGER: Inhibition of human A3-KAW cell growth in a cell viability assay.

[62] = test system: A388; assay type: functional, cell-based
Description: SANGER: Inhibition of human A388 cell growth in a cell viability assay.

[63] = test system: C8166; assay type: functional, cell-based
Description: SANGER: Inhibition of human C8166 cell growth in a cell viability assay.

[64] = test system: TE-11; assay type: functional, cell-based
Description: SANGER: Inhibition of human TE-11 cell growth in a cell viability assay.

[65] = test system: TK-10; assay type: functional, cell-based
Description: SANGER: Inhibition of human TK10 cell growth in a cell viability assay.

[66] = test system: CAS-1; assay type: functional, cell-based
Description: SANGER: Inhibition of human CAS-1 cell growth in a cell viability assay.

Compound: C[C@]12O[C@H](C[C@]1(O)CO)n1c3ccccc3c3c4c(c5c6ccccc6n2c5c31)CNC4=O [LESTAURTINIB]
- IC50 [1]: 497 nM
- IC50 [2]: 189 nM
- IC50 [3]: > 2000 nM
- IC50 [4]: 132 nM
- IC50 [5]: 411 nM
- IC50 [6]: 1520 nM
- IC50 [7]: > 2000 nM
- IC50 [8]: 97.8 nM
- IC50 [9]: 535 nM
- IC50 [10]: 125 nM
- IC50 [11]: 16.5 nM
- IC50 [12]: 266 nM
- IC50 [13]: 8.69 nM
- IC50 [14]: > 2000 nM
- IC50 [15]: 940 nM
- IC50 [16]: > 2000 nM
- IC50 [17]: > 2000 nM
- IC50 [18]: 179 nM
- IC50 [19]: > 2000 nM
- IC50 [20]: 649 nM
- IC50 [21]: > 2000 nM
- IC50 [22]: 29.2 nM
- IC50 [23]: 689 nM
- IC50 [24]: 52.4 nM
- IC50 [25]: 409 nM
- IC50 [26]: 138 nM
- IC50 [27]: 547 nM
- IC50 [28]: > 2000 nM
- IC50 [29]: > 2000 nM
- IC50 [30]: 713 nM
- IC50 [31]: 375 nM
- IC50 [32]: > 2000 nM
- IC50 [33]: > 2000 nM
- IC50 [34]: 76.9 nM
- IC50 [35]: > 2000 nM
- IC50 [36]: 27.2 nM
- IC50 [37]: 195 nM
- IC50 [38]: 372 nM
- IC50 [39]: > 2000 nM
- IC50 [40]: 439 nM
- IC50 [41]: 912 nM
- IC50 [42]: > 2000 nM
- IC50 [43]: > 2000 nM
- IC50 [44]: 36.7 nM
- IC50 [45]: 513 nM
- IC50 [46]: 149 nM
- IC50 [47]: 363 nM
- IC50 [48]: 1180 nM
- IC50 [49]: 136 nM
- IC50 [50]: 566 nM
- IC50 [51]: 123 nM
- IC50 [52]: > 2000 nM
- IC50 [53]: 175 nM
- IC50 [54]: 216 nM
- IC50 [55]: > 2000 nM
- IC50 [56]: 258 nM
- IC50 [57]: 1100 nM
- IC50 [58]: 112 nM
- IC50 [59]: 1490 nM
- IC50 [60]: 154 nM
- IC50 [61]: 23.9 nM
- IC50 [62]: > 2000 nM
- IC50 [63]: > 2000 nM
- IC50 [64]: 609 nM
- IC50 [65]: 251 nM
- IC50 [66]: > 2000 nM

Compound: CCNC(=O)c1noc(-c2cc(C(C)C)c(O)cc2O)c1-c1ccc(CN2CCOCC2)cc1 [LUMINESPIB]
- IC50 [1]: 135 nM
- IC50 [2]: 41.2 nM
- IC50 [3]: 79.6 nM
- IC50 [4]: > 256 nM
- IC50 [5]: > 256 nM
- IC50 [6]: > 256 nM
- IC50 [7]: > 256 nM
- IC50 [8]: 21.5 nM
- IC50 [9]: > 256 nM
- IC50 [10]: 87.6 nM
- IC50 [11]: > 256 nM
- IC50 [12]: > 256 nM
- IC50 [13]: > 256 nM
- IC50 [14]: 20.6 nM
- IC50 [15]: 172 nM
- IC50 [16]: > 256 nM
- IC50 [17]: 21.4 nM
- IC50 [18]: 28.6 nM
- IC50 [19]: 15.4 nM
- IC50 [20]: 20 nM
- IC50 [21]: > 256 nM
- IC50 [22]: > 256 nM
- IC50 [23]: 14.7 nM
- IC50 [24]: 93.5 nM
- IC50 [25]: > 256 nM
- IC50 [26]: 7.03 nM
- IC50 [27]: 24.3 nM
- IC50 [28]: 162 nM
- IC50 [29]: > 256 nM
- IC50 [30]: 83.5 nM
- IC50 [31]: 8.59 nM
- IC50 [32]: 61.9 nM
- IC50 [33]: 77 nM
- IC50 [34]: 50.3 nM
- IC50 [35]: 41.9 nM
- IC50 [36]: 93.1 nM
- IC50 [37]: 36.7 nM
- IC50 [38]: 242 nM
- IC50 [39]: 186 nM
- IC50 [40]: > 256 nM
- IC50 [41]: > 256 nM
- IC50 [42]: 24 nM
- IC50 [43]: 15 nM
- IC50 [44]: > 256 nM
- IC50 [45]: > 256 nM
- IC50 [46]: 71.7 nM
- IC50 [47]: 13.4 nM
- IC50 [48]: 17.5 nM
- IC50 [49]: 29.5 nM
- IC50 [50]: 34 nM
- IC50 [51]: > 256 nM
- IC50 [52]: 28 nM
- IC50 [53]: > 256 nM
- IC50 [54]: 20.4 nM
- IC50 [55]: > 256 nM
- IC50 [56]: 179 nM
- IC50 [57]: > 256 nM
- IC50 [58]: 159 nM
- IC50 [59]: 24.7 nM
- IC50 [60]: 28.5 nM
- IC50 [61]: 227 nM
- IC50 [62]: 21.2 nM
- IC50 [63]: 11.3 nM
- IC50 [64]: 200 nM
- IC50 [65]: 13.8 nM
- IC50 [66]: 120 nM
